Article PMC7918738, “Microtubule Destabilizing Sulfonamides as an Alternative to Taxane-Based Chemotherapy” (International Journal of Molecular Sciences, 2021)

Assays:
[1] = tested on: HeLa cells; test: Cell cycle analysis in HeLa (PI staining, flow cytometry); format: cell-based, human; settings: 24 h; 38 600 nM, 42 50 nM, 45 400 nM
Method: The effect of the lead MDS on the cell cycle of MCF7, SKOV3, and HeLa cells was analyzed in time-course experiments at 24, 48, and 72 h post-treatment by DNA staining and flow cytometry quantification. The working concentration for each compound (600 nM for 38, 50 nM for 42, and 400 nM for 45) was established at the complete inhibition of cell proliferation in view of individually assays run in parallel for each cell line.
Cell cycle analysis was performed in MCF7, SKOV-3, and HeLa cells by quantifying the DNA content by flow cytometry. Cells in the exponential growth phase at 2·10^4 cells/mL were seeded in 24-well plates (1 mL/well). After 24 h incubation, cells were treated with different concentrations of the selected compounds and the effect of treated and untreated cells was measured 24, 48, and 72 h post-treatment. Live and dead cells were collected and fixed in ice-cold ethanol/PBS (7:3) and stored at 4 °C for later use. Cells were rehydrated with PBS, treated with 100 µg/mL RNase A (Sigma-Aldrich Co., St. Louis, MO, USA) and stained overnight in darkness at room temperature with 50 µg/mL PI (Sigma-Aldrich Co.). Cell cycle profiles were then analyzed by flow cytometry using BD Accuri™ C6 Plus Flow Cytometer (BD Biosciences, San José, CA, USA). Data were analyzed with BD Accuri™ C6 Software (version 1.0.264.21, BD Biosciences, San José, CA, USA) and compared to control cells. Compounds were dissolved in DMSO and the final solvent concentration never exceeded 0.5% (v/v). Control wells included cells with 0.5% (v/v) DMSO.

[2] = tested on: HeLa cells; test: Annexin V-FITC/PI cell death quantification in HeLa; format: cell-based, human; settings: 38 600 nM, 42 50 nM, 45 400 nM
Method: To determine whether the cytotoxic/antiproliferative effect of the MDS was due to apoptosis induction, cells were treated with variable concentrations of the drug for 72 h or 6 days, stained with Annexin V-FITC (AnV) and propidium iodide (PI), and analyzed by flow cytometry. Double negative cells (AnV^−/PI^−) were classified as live cells (L), cells positive for AnV and negative for PI (AnV^+/PI^−) were considered in Early Apoptosis (EA), cells negative for AnV and positive for PI (AnV^−/PI^+) were considered necrotic (N), and double-positive cells (AnV^+/PI^+) as Late Apoptosis (LA). In all cases, the compounds were used at the same concentrations previously used in cell cycle studies (Table 5).
MCF7, SKOV-3, and HeLa apoptotic cells were quantified using an Annexin V-FITC/PI apoptosis detection kit (Immunostep, Salamanca, Spain) according to the manufacturer’s guidelines. 1.5 mL/well of cells in the exponential growth phase at 2·10^4 cells/mL were seeded onto 12-well plates and left to attach overnight. After 24 h incubation, cells were treated with selected compounds. After 72 h (MCF7, SKOV-3, and HeLa) and 6 days (MCF7) post-treatment, attached and floating cells of treated and untreated wells were collected, centrifuged, resuspended in Annexin V binding buffer, and stained with Annexin V-FITC/PI. Cells were then incubated in darkness at room temperature for 15 min and a total of 30,000 cells were acquired and analyzed using the BD Accuri™ C6 Plus Flow Cytometer and Software (version 1.0.264.21, BD Biosciences, San José, CA, USA), respectively. Compounds were dissolved in DMSO and the final solvent concentration never exceeded 0.5% (v/v). Control wells included cells with 0.5% (v/v) DMSO.

| Structure (SMILES) | HeLa cells at G2/M phase [1] [%] | Annexin V-FITC/PI 72 h EA (early apoptosis) [2] [%] | Annexin V-FITC/PI 72 h LA (late apoptosis, double-positives) [2] [%] | Annexin V-FITC/PI 72 h Necrosis [2] [%] |
| --- | --- | --- | --- | --- |
| CNc1ccc(S(=O)(=O)N(C)c2cc(OC)c(OC)c(OC)c2)cc1 [Compound 38] | 80 | 1.1 | 87.6 | 10.6 |
| COc1ccc(S(=O)(=O)N(C)c2cc(OC)c(OC)c(OC)c2)cc1N [Compound 42] | 44 | 1.4 | 82.0 | 9.4 |
| COc1ccc(S(=O)(=O)N(Cc2ccccc2)c2cc(OC)c(OC)c(OC)c2)cc1N [Compound 45] | 80 | 1.5 | 84.9 | 12.7 |
